According to patent publication US11312719B2, “9-substituted amino triazolo quinazoline derivatives as adenosine receptor antagonists, pharmaceutical compositions and their use” (Merck Sharp & Dohme Corp., priority 2018, dated 2022):

Assays:
[1] = target: human A2a adenosine receptor (Homo sapiens (Human), UniProt P29274); experiment: A2a receptor affinity radioligand binding assay ([3H] SCH58261); settings: membranes from HEK293 or CHO cells expressing human A2a receptor
Summary of the method: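 Membranes from HEK293 or CHO cells expressing human A2a were preincubated 15–30 min at room temperature with compound, then incubated 60 min at room temperature with [3H]SCH58261 (diluted to 4 nM) in 50 mM Tris pH 7.4, 10 mM MgCl2, 0.005% Tween20. Bound radioactivity was collected by filtration; nonspecific binding defined with 1 μM ZM241385; IC50 from 4-parameter logistic fit.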

[2] = target: human A2b adenosine receptor (Homo sapiens (Human), UniProt P29275); experiment: A2b radioligand filtration binding assay; settings: membranes from HEK293 cells expressing human A2b receptor
human A2b adenosine receptor, sequence (P29275 whole entry): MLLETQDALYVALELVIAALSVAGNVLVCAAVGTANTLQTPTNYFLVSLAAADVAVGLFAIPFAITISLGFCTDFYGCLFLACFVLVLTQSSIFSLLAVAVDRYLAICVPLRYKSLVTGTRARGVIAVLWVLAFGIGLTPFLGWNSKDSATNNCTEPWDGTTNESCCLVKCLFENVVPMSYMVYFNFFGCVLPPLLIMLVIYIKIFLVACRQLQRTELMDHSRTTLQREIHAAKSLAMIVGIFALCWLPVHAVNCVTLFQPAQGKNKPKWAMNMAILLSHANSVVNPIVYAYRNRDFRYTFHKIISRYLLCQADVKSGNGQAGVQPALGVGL
Summary of the method: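 Membranes from HEK293 cells expressing human A2b receptor preincubated with compound 15 to 30 min at room temperature, then tritiated proprietary A2b antagonist (diluted to 14 nM before addition) added in PBS pH 7.4 for 60 min at room temperature. Bound radioactivity by filtration and scintillation; non-specific binding with 20 μM NECA; IC50 by 4-parameter logistic fit.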

human A2a adenosine receptor, sequence (P29274 whole entry): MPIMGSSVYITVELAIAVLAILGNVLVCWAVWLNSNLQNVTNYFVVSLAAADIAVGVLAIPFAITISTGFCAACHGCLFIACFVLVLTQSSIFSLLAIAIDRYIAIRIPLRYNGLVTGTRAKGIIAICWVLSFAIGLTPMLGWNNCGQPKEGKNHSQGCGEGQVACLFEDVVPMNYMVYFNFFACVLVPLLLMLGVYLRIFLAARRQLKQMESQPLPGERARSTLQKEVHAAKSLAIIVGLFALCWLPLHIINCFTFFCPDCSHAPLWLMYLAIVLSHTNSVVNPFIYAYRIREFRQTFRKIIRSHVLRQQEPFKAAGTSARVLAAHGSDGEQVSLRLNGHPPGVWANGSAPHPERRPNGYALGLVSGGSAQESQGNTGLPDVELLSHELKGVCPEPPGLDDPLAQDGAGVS

Compound | IC50 [1] [nM] | IC50 [2] [nM]
COc1cc2nc(N)n3nc(C4CCC(C)N(c5cnn(C6CCCC6O)c5)C4)nc3c2cc1F (single isomer, unassigned) [Example 89, (1S or 1R,2S or 2R)-2-(4-((2S,5R or 2R,5S)-5-(5-amino-9-fluoro-8-methoxy-[1,2,4]triazolo[1,5-c]quinazolin-2-yl)-2-methylpiperidin-1-yl)-1H-pyrazol-1-yl)cyclopentan-1-ol] | 0.2 | 3.4
COc1cc2nc(N)n3nc([C@@H]4C[C@H](C)CN(c5cnn(CC(C)(C)O)c5)C4)nc3c2cc1F (single isomer, unassigned) [Example 90, 1-(4-((3R,5S or 3S,5R)-3-(5-amino-9-fluoro-8-methoxy-[1,2,4]triazolo[1,5-c]quinazolin-2-yl)-5-methylpiperidin-1-yl)-1H-pyrazol-1-yl)-2-methylpropan-2-ol] | 1.2 | 29
COc1cc2nc(N)n3nc([C@H]4C[C@@H](C)CN(c5cnn(CC(C)(C)O)c5)C4)nc3c2cc1F (single isomer, unassigned) [Example 91, 1-(4-((3S,5R or 3R,5S)-3-(5-amino-9-fluoro-8-methoxy-[1,2,4]triazolo[1,5-c]quinazolin-2-yl)-5-methylpiperidin-1-yl)-1H-pyrazol-1-yl)-2-methylpropan-2-ol] | 44.7 | 4620
COc1cc2nc(N)n3nc([C@@H]4C[C@@H](C)CN(c5cnn(CC(C)(C)O)c5)C4)nc3c2cc1F (single isomer, unassigned) [Example 92, rac-1-(4-((3R,5R or 3S,5S)-3-(5-amino-9-fluoro-8-methoxy-[1,2,4]triazolo[1,5-c]quinazolin-2-yl)-5-methylpiperidin-1-yl)-1H-pyrazol-1-yl)-2-methylpropan-2-ol] | 10.9 | 602
COc1cc2nc(N)n3nc([C@@H]4CCCN(c5cnn(CCCC(C)O)c5)C4)nc3c2cc1F (single isomer, unassigned) [Example 94, (S or R)-5-(4-((R)-3-(5-amino-9-fluoro-8-methoxy-[1,2,4]triazolo[1,5-c]quinazolin-2-yl)piperidin-1-yl)-1H-pyrazol-1-yl)pentan-2-ol] | 7.8 | 752
COc1cc2nc(N)n3nc([C@@H]4CCCN(c5cnn(CCCC(C)O)c5)C4)nc3c2cc1F (single isomer, unassigned) [Example 95, (R or S)-5-(4-((R)-3-(5-amino-9-fluoro-8-methoxy-[1,2,4]triazolo[1,5-c]quinazolin-2-yl)piperidin-1-yl)-1H-pyrazol-1-yl)pentan-2-ol] | 205 | 5040
COc1cc2nc(N)n3nc([C@@H]4CC[C@H](C)N(c5cnn(C6CCC(C)(O)CC6)c5)C4)nc3c2cc1F (single isomer, unassigned) [Example 96, rac-(1r,4s or 1r,4r)-4-(4-((2S,5R or 2R,5S)-5-(5-amino-9-fluoro-8-methoxy-[1,2,4]triazolo[1,5-c]quinazolin-2-yl)-2-methylpiperidin-1-yl)-1H-pyrazol-1-yl)-1-methylcyclohexan-1-ol] | 0.7 | 24.6
COc1cc2nc(N)n3nc([C@@H]4CC[C@H](C)N(c5cnn(C6CCC(C)(O)CC6)c5)C4)nc3c2cc1F (single isomer, unassigned) [Example 97, rac-(1r,4r or 1r,4s)-4-(4-((2S,5R or 2R,5S)-5-(5-amino-9-fluoro-8-methoxy-[1,2,4]triazolo[1,5-c]quinazolin-2-yl)-2-methylpiperidin-1-yl)-1H-pyrazol-1-yl)-1-methylcyclohexan-1-ol] | 0.6 | 33.3
COc1cc2nc(N)n3nc([C@@H]4CCCN(c5cnn([C@H]6CC[C@]6(C)O)c5)C4)nc3c2cc1F (single isomer, unassigned) [Example 98, (1S or 1R,2S or 2R)-2-(4-((R)-3-(5-amino-9-fluoro-8-methoxy-[1,2,4]triazolo[1,5-c]quinazolin-2-yl)piperidin-1-yl)-1H-pyrazol-1-yl)-1-methylcyclobutan-1-ol] | 0.9 | 116
